The text below walks through data of PubChem BioAssay (NCI).

Test systems include LOX IMVI melanoma; OVCAR-5 ovarian; SK-OV-3 ovarian; OVCAR-3 ovarian; HOP-62 NSCLC; EKVX NSCLC; OVCAR-4 ovarian; IGROV1 ovarian.
Common to all, as to assay: growth of human tumour cells (NCI), 48 h

Values joined by “and” are separate entries in the source; they are usually repeats but may differ in a detail not shown here. Equal entries are not always repeated.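 48-hour exposure; five concentrations; linearly interpolated endpoints. GI50 = concentration required for 50% inhibition of growth. TGI marks complete inhibition of growth.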

Regarding `COn1cc(C(=O)N=C(SC)SC)c2ccccc21`, the GI50 in the assay with LOX IMVI melanoma is 17.6 µM; in the assay on OVCAR-5 ovarian, 26.2 µM; in the assay on SK-OV-3 ovarian, 50.6 µM; in the assay with OVCAR-3 ovarian, 17.8 µM; in the assay on HOP-62 NSCLC it was 17.6 µM; in the assay with EKVX NSCLC, 25 µM. Further, the GI50 in the assay on OVCAR-4 ovarian is over 100 µM; in the assay on IGROV1 ovarian it was 11.8 µM. Besides, the TGI in the assay with LOX IMVI melanoma was 50.6 µM; in the assay on OVCAR-5 ovarian, 73.7 µM; in the assay on SK-OV-3 ovarian it was over 100 µM; in the assay on OVCAR-3 ovarian, 51.5 µM; with HOP-62 NSCLC, 51.4 µM; in the assay with EKVX NSCLC, 77.5 µM. Further, the values for the TGI in the assay with OVCAR-4 ovarian and in the assay with IGROV1 ovarian were over 100 µM and 55.5 µM, respectively.

As to `CCC(=O)OCN1C(=O)C=CC1=O`, the TGI with LOX IMVI melanoma is 34.3 µM and 35.1 µM; in the assay with OVCAR-5 ovarian, 32.9 µM and 33.1 µM; with SK-OV-3 ovarian, over 100 µM; in the assay on OVCAR-3 ovarian, 25.7 µM and 18.6 µM; in the assay with HOP-62 NSCLC, 37.6 µM and 34.9 µM; in the assay on EKVX NSCLC, 32.4 µM and 42.5 µM. In addition, the TGI in the assay on OVCAR-4 ovarian was 39.5 µM and 34.5 µM; in the assay with IGROV1 ovarian, 40.5 µM and 34.2 µM. The GI50 in the assay with SK-OV-3 ovarian is over 100 µM; in the assay on OVCAR-3 ovarian, 12.9 µM; with EKVX NSCLC, 16.8 µM; with OVCAR-4 ovarian it was 21.2 µM; with IGROV1 ovarian, 21.4 µM.

Consider `C=C1C(OCCO)OC2O[C@]3(C)CCC4[C@H](C)CCC1C24OO3` (some centres undefined), for which the GI50 in the assay on LOX IMVI melanoma is 4.15 µM; with OVCAR-5 ovarian, 19.6 µM; with SK-OV-3 ovarian, over 100 µM; in the assay with OVCAR-3 ovarian it was 15.6 µM; with HOP-62 NSCLC, 52.7 µM; in the assay with EKVX NSCLC, 23.2 µM. The GI50 with OVCAR-4 ovarian is 6.12 µM; in the assay with IGROV1 ovarian it was 12.3 µM. In addition, the TGI in the assay with LOX IMVI melanoma is 19.2 µM; in the assay with OVCAR-5 ovarian it was over 100 µM; in the assay on SK-OV-3 ovarian, over 100 µM; in the assay with OVCAR-3 ovarian, over 100 µM; in the assay on HOP-62 NSCLC it was over 100 µM; in the assay on EKVX NSCLC, over 100 µM. Besides, the results for the TGI in the assay with OVCAR-4 ovarian and with IGROV1 ovarian were over 100 µM and 34.9 µM, respectively.

Turning to `COC(=O)[C@]1(C)CC[C@]2(C)CC[C@]3(C)C(=CC(=O)[C@@H]4[C@@]5(C)CCC(=O)NC(C)(C)[C@@H]5CC[C@]43C)[C@@H]2C1`, the GI50 in the assay on LOX IMVI melanoma was 16.6 µM; in the assay on OVCAR-5 ovarian, 21.3 µM; with SK-OV-3 ovarian, 24 µM; with OVCAR-3 ovarian it was 15.3 µM; in the assay on HOP-62 NSCLC, 29 µM; in the assay with EKVX NSCLC, 25.5 µM. The figures for the GI50 with OVCAR-4 ovarian and in the assay with IGROV1 ovarian were 27.6 µM and 26.7 µM, respectively. In addition, the TGI in the assay with LOX IMVI melanoma was 32.3 µM; in the assay on OVCAR-5 ovarian, 38.9 µM; in the assay on SK-OV-3 ovarian it was over 100 µM; in the assay with OVCAR-3 ovarian, 32.7 µM; in the assay on HOP-62 NSCLC, over 100 µM; in the assay on EKVX NSCLC, over 100 µM. The TGI in the assay on OVCAR-4 ovarian and in the assay on IGROV1 ovarian was over 100 µM throughout.

On to `Nc1cc(N)c2nc(-c3ccccc3)c(Oc3ccc(Cl)c(Cl)c3)nc2c1`, for which the GI50 with LOX IMVI melanoma is 16.1 µM; in the assay on OVCAR-5 ovarian it was 25.4 µM; with SK-OV-3 ovarian, 23.9 µM; with OVCAR-3 ovarian it was 10.8 µM; with HOP-62 NSCLC it was 16.9 µM; with EKVX NSCLC it was 2.16 µM. Further, the values for the GI50 in the assay on OVCAR-4 ovarian and with IGROV1 ovarian were 33 µM and 11.4 µM, respectively. Moreover, the TGI amounted to 34 µM with LOX IMVI melanoma; 58.3 µM in the assay on OVCAR-5 ovarian; 65.9 µM in the assay with SK-OV-3 ovarian; 26.9 µM with OVCAR-3 ovarian; 37.9 µM in the assay on HOP-62 NSCLC; 8.35 µM with EKVX NSCLC. Moreover, the TGI was over 100 µM in the assay on OVCAR-4 ovarian and 32.2 µM in the assay on IGROV1 ovarian.

As to `COC(=O)CCc1c(/C=C2\N=C(c3ccc[nH]3)C=C2OC)[nH]c(C)c1C(=O)OCc1ccccc1`, the GI50 in the assay on LOX IMVI melanoma is 0.169 µM; with OVCAR-5 ovarian it was 0.684 µM; in the assay on SK-OV-3 ovarian, 1.67 µM; in the assay on OVCAR-3 ovarian, 0.34 µM; with HOP-62 NSCLC, 0.303 µM; in the assay on EKVX NSCLC, 0.733 µM. For the same compound, the GI50 in the assay with OVCAR-4 ovarian was 0.331 µM; with IGROV1 ovarian, 0.355 µM. For the same compound, the TGI in the assay on LOX IMVI melanoma was 0.418 µM; in the assay with OVCAR-5 ovarian, 9.84 µM; with SK-OV-3 ovarian, 12.6 µM; in the assay with OVCAR-3 ovarian it was 1.64 µM; with HOP-62 NSCLC, 2 µM; in the assay with EKVX NSCLC, 5.29 µM. The TGI in the assay with OVCAR-4 ovarian was over 100 µM; in the assay on IGROV1 ovarian, 2.41 µM.

As for `CCC(=O)Oc1ccc(/C=N/NC(N)=S)nc1`, the GI50 with LOX IMVI melanoma is 2.91 µM; with OVCAR-5 ovarian it was 34 µM; in the assay with SK-OV-3 ovarian, 29.7 µM; in the assay on OVCAR-3 ovarian it was 3.37 µM; in the assay with HOP-62 NSCLC it was 5.53 µM; in the assay with EKVX NSCLC it was 43.7 µM. The results for the GI50 with OVCAR-4 ovarian and in the assay with IGROV1 ovarian were 3.92 µM and 9.94 µM, respectively. Also, the TGI in the assay on LOX IMVI melanoma was over 100 µM; in the assay with OVCAR-5 ovarian it was over 100 µM; with SK-OV-3 ovarian it was over 100 µM; with OVCAR-3 ovarian, over 100 µM; in the assay with HOP-62 NSCLC, 82.3 µM; in the assay with EKVX NSCLC it was over 100 µM. For the same compound, the TGI in the assay with OVCAR-4 ovarian and with IGROV1 ovarian was over 100 µM throughout.

On to `COc1ccc2c(c1)NC(=O)CN2c1nc(C)nc2ccccc12`, for which the GI50 with LOX IMVI melanoma is 0.000526 µM; in the assay on SK-OV-3 ovarian, 0.000409 µM; in the assay on OVCAR-3 ovarian, 0.000266 µM; with HOP-62 NSCLC it was 0.00069 µM; in the assay on IGROV1 ovarian, 0.000829 µM. Also, the TGI was over 100 µM with LOX IMVI melanoma; over 100 µM in the assay on OVCAR-5 ovarian; 7.19 µM in the assay on SK-OV-3 ovarian; 0.000746 µM in the assay on OVCAR-3 ovarian; over 100 µM with HOP-62 NSCLC; over 100 µM with EKVX NSCLC. Moreover, the results for the TGI with OVCAR-4 ovarian and in the assay on IGROV1 ovarian were over 100 µM and 74.9 µM, respectively.

Take `COc1ccc(-c2cc(=O)c3cccnc3[nH]2)cc1`: the TGI in the assay with LOX IMVI melanoma, with OVCAR-5 ovarian, with SK-OV-3 ovarian, in the assay with OVCAR-3 ovarian, in the assay with HOP-62 NSCLC and with EKVX NSCLC was over 100 µM each time. In addition, the TGI in the assay on OVCAR-4 ovarian and in the assay on IGROV1 ovarian was over 100 µM in each case. Besides, the GI50 in the assay with OVCAR-3 ovarian was 29.9 µM.

Take `CN(C)c1ccc(/C=N/NC(=O)c2cnc3ccccc3c2)cc1`: the TGI in the assay with LOX IMVI melanoma, in the assay with OVCAR-5 ovarian, with SK-OV-3 ovarian, in the assay with OVCAR-3 ovarian, in the assay with HOP-62 NSCLC and in the assay with EKVX NSCLC was over 100 µM throughout. Also, the TGI in the assay with OVCAR-4 ovarian and in the assay with IGROV1 ovarian was over 100 µM in each case.
